How the values were obtained:
[1] = target: T1, indoleamine 2,3-dioxygenase-1 (IDO-1) (Homo sapiens, UniProt P14902); experiment: Tryptophan breakdown to kynurenine (Kyn/Trp by HPLC) in PBMC supernatants after 48 h treatment; format: cell-based
T1 construct: PBMC were isolated from healthy donors who gave written consent that their donated blood may be used for scientific purposes; endogenous in cells; host or cells: primary human PBMC from healthy blood donors, stimulated with 10 μg/mL PHA
Description: The study was performed in accordance with the Declaration of Helsinki. PBMC were isolated from healthy donors who gave written consent that their donated blood may be used for scientific purposes, in case when it was not selected for transfusion. The PBMC were isolated by density gradient centrifugation as described earlier.
(§1) The PBMC were either stimulated with 10 μg/mL of the mitogen lectin phytohaemagglutin (PHA) after 30 minutes of treatment, or were left unstimulated. In addition to PHA, the stimulatability of the PBMC was controlled for each experiment by treatment with the lectin concanavalin A (ConA) at a concentration of 10 μg/mL. After 48 h of incubation, cell culture supernatants were collected and stored at −20°C until analysis. In addition, 1-methyl-D-tryptophan (Sigma-Aldrich, Vienna, Austria) was used as a postive control for the suppression of IDO-1 acitivity.
Briefly, the HPLC analysis of tryptophan and kynurenine was performed on a ProStar Varian system (USA) using rp-18 columns (Merck, Germany) and acetate buffer as eluent (flow-rate: 0.9 mL/min) according to the protocol described earlier. 3-Nitro-L-tyrosine (Sigma Aldrich, Austria) was used as an internal standard. Kynurenine and tryptophan standards were purchased from Sigma-Aldrich (Austria). Kynurenine and 3-nitro-L-tyrosine were detected by UV-absorbance at 360 nm wavelength (Shimadzu SPD-6A UV detector, Austria), tryptophan was detected by its fluorescence with an excitation wavelength of 286 nm and an emission wavelength of 366 nm (ProStar 360 detector, Varian, USA). The Kyn/Trp was calculated, which is an estimate of IDO-1 activity and expressed in μmol Kyn / mmol Trp. The sensitivity of the measurements was 0.5 μmol/L kynurenine and 0.1 μmol/L tryptophan.
P-values below 0.05 were considered to indicate significance. Results are expressed as percent of unstimulated and PHA-stimulated control cells and are shown as mean ± standard error of the mean (SEM).

[2] = test system: neopterin formation by GTP-cyclohydrolase 1 (GTP-CH-I) in PBMC; experiment: Neopterin formation in PBMC supernatants (ELISA) after 48 h treatment; format: cell-based, human; conditions: PHA-stimulated PBMC; data not shown; insufficient repetitions for (1) and (3)
Description: The study was performed in accordance with the Declaration of Helsinki. PBMC were isolated from healthy donors who gave written consent that their donated blood may be used for scientific purposes, in case when it was not selected for transfusion. The PBMC were isolated by density gradient centrifugation as described earlier. After isolation, the cells were washed three times with phosphate buffered saline containing 1 μM ethylenediaminetetraacetic acid and subsequently they were maintained in RPMI 1640 (Sigma Aldrich, Vienna, Austria) supplemented with 2 mM L-glutamine, 10% heat-inactivated fetal calf serum (Biochrom, Germany) and 50 μg/mL gentamicin (Lonza-BioWhittaker, USA), at 37°C in a humidified atmosphere containing 5% CO2.
as §1, with “The cells were seeded in 48-well plates (1.5 × 10^6 cells/mL/well) and treated either with increasing concentrations of the extract, the individual fractions or the pure compounds, dissolved in DMSO. The” for “The”
Neopterin concentrations were measured by ELISA (BRAHMS, Germany), according to the manufacturers' instructions with the detection limit of 2 nmol/L.
The half maximal (50% inhibitory) concentration (IC50) was calculated by using the CalcuSyn software (Biosoft, UK) according the concept of Chou and Talalay. […] P-values below 0.05 were considered to indicate significance. Results are expressed as percent of unstimulated and PHA-stimulated control cells and are shown as mean ± standard error of the mean (SEM).

T1 sequence (P14902 whole entry): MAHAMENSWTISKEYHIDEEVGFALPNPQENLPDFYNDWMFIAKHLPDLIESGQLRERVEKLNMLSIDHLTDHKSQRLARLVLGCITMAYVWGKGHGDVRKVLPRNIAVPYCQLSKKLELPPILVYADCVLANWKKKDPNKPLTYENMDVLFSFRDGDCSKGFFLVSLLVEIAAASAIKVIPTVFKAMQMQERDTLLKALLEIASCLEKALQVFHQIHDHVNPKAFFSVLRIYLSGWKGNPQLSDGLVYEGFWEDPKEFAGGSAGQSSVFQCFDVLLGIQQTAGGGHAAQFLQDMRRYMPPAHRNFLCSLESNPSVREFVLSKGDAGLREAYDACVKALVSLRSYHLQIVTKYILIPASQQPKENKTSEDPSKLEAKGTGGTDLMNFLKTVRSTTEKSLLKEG

Compound	IC50 [1]	Inhibition of neopterin formation (in words) [2]
CC(C)C1=C(O)C(=O)C2=C(C1=O)[C@H](O)C[C@H]1C(C)(C)CCC[C@]21C [compound 1, horminone]	346 µM	inhibition of neopterin formation
CC(=O)O[C@@H]1C[C@H]2C(C)(C)CCC[C@]2(C)C2=C1C(=O)C(C(C)C)=C(O)C2=O [compound 2, 7-O-acetylhorminone]	71.7 µM	inhibition of neopterin formation
COC1=C(C(C)C)C(=O)c2c(O)cc3c(c2C1=O)C=CCC3(C)C [compound 8, 3-deoxyagastaquinone]	79.5 µM	inhibition of neopterin formation
COc1c(O)c2c(c(O)c1C(C)C)C(=O)C[C@H]1C(C)(C)CCC[C@]21C [compound 6, inuroyleanol]		no dose-dependent effect
COC1=C(C(C)C)C(=O)c2c(O)cc3c(c2C1=O)C=CC(=O)C3(C)C [compound 3, agastaquinone]	46.3 µM	no dose-dependent effect
C=C1[C@@H](C)CC[C@]2(C)c3c(O)c(OC)c(C(C)C)c(O)c3C(=O)C[C@@H]12 [compound 7, agastol]	165 µM	minor

Source: publication PMC5821946, “Immunomodulatory Effects of Diterpene Quinone Derivatives from the Roots of Horminum pyrenaicum in Human PBMC” (Oxidative Medicine and Cellular Longevity, 2018)
